The values that follow come from patent publication US20230078764A1 (Yumanity Therapeutics, Inc., priority 2019, published 2023).

Structures are written as SMILES. Read-outs that look alike come from different tables or passages of the source.

The target of one assay is T1, human SCD1 (Homo sapiens, UniProt O00767).
T1 construct: expressed in transfected cells; host or cells: yeast strain with OLE1 deleted, plasmid-borne human SCD1 (selected in SD-Ura)
T1 sequence (O00767 1-359): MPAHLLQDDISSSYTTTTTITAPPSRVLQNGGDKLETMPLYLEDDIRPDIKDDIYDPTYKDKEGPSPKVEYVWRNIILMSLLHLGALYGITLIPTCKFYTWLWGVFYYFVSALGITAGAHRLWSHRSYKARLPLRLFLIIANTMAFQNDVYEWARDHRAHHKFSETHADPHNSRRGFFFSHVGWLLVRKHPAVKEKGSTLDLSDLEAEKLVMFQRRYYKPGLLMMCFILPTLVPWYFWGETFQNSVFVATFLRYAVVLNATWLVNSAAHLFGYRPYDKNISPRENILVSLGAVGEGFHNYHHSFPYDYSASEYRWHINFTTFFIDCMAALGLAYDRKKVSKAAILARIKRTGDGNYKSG
Nature of the assay: Growth inhibition of yeast strain expressing human SCD1 as sole desaturase (OLE1 deleted), OD600 readout. To be noted: yeast strain expressing human SCD1 as sole desaturase; growth (OD600) after 40 h at 30° C.; read-out: SCD1 IC50. Type of assay: cell-based.

Another assay has as its target T2, human SCD5 (Homo sapiens, UniProt Q86SK9).
T2 construct: expressed in transfected cells; host or cells: yeast strain with OLE1 deleted, plasmid-borne human SCD5 (selected in SD-Ura)
T2 sequence (Q86SK9 1-330): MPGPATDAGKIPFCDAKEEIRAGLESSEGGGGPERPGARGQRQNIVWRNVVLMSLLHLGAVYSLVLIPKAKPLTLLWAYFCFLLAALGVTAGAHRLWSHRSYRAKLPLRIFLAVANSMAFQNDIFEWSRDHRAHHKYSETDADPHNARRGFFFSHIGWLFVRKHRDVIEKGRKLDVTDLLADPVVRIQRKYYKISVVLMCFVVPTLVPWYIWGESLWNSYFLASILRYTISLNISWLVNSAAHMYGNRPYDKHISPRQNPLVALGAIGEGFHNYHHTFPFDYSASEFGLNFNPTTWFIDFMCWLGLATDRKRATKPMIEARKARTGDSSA
Nature of the assay: Growth inhibition of yeast strain expressing human SCD5 as sole desaturase (OLE1 deleted), OD600 readout. Type of assay: cell-based.

[1] abbreviates: yeast strain expressing human SCD5 as sole desaturase, growth (OD600) after 40 h at 30° C., read-out: SCD5 IC50.

A word on the IC50: it is the concentration at which inhibition is half-maximal. Regarding `Cn1nc(C(=O)Nc2ccc(NCc3cccc(Cl)c3)cn2)ccc1=O` [Compound 286], the IC50 at human SCD1 is 4000 nM; at human SCD5 (setting [1]), 240 nM.
`Cn1cc(C(=O)Nc2ccc(Cc3cccc(F)c3)cn2)cc(F)c1=O` [Compound 117, 5-fluoro-N-(5-(3-fluorobenzyl)pyridin-2-yl)-1-methyl-6-oxo-1,6-dihydropyridine-3-carboxamide]: the concentration for half-maximal inhibition (IC50) at human SCD1 was found to be 630 nM; at human SCD5 (setting [1]), 70 nM.
On the same counts, the results for `Cn1nc(C(=O)Nc2nc(C#N)c(Cc3cccc(F)c3)s2)ccc1=O` [Compound 233, N-(4-cyano-5-(3-fluorobenzyl)thiazol-2-yl)-1-methyl-6-oxo-1,6-dihydropyridazine-3-carboxamide] are 1630 nM and 870 nM.
For `Cn1cc(C(=O)Nc2ccc(Cc3ccc(Cl)c(C#N)c3)cn2)ccc1=O` [Compound 617], in that order: 220 nM and 39 nM.
`O=C(Nc1ncc(Cc2cccc(F)c2)s1)c1ccc(=O)n(CCF)n1` [Compound 226, N-(5-(3-fluorobenzyl)thiazol-2-yl)-1-(2-fluoroethyl)-6-oxo-1,6-dihydropyridazine-3-carboxamide]: the values for the IC50 on human SCD1 and at human SCD5 (setting [1]) were 7270 nM and 5710 nM, respectively.
For `CN1N=C(C(=O)Nc2ccc(Cc3cccc(F)c3)nc2)CCC1=O` [Compound 401], in that order: > 45000 nM and > 45000 nM.
For `C=Cc1ncc(C(=O)Nc2ccc(Cc3cccc(Cl)c3)cn2)cc1F` [Compound 333], in that order: 110 nM and 180 nM.
For `N#Cc1ccc(C(=O)Nc2ccc(Cc3cc(F)cc(F)c3)cn2)nc1` [Compound 493], in that order: 32000 nM and 43 nM.
For the molecule `CCCn1nc(C(=O)Nc2ccc(Cc3cccc(F)c3)cn2)ccc1=O` [Compound 71, N-(5-(3-fluorobenzyl)pyridin-2-yl)-6-oxo-1-propyl-1,6-dihydropyridazine-3-carboxamide], the IC50 at human SCD1 was > 45000 nM; at human SCD5 (setting [1]), 3910 nM.
On the same counts, the results for `N#Cc1ccc(NC(=O)c2ccc(Cc3cc(F)cc(F)c3)cn2)cn1` [Compound 526] are 99 nM and 10 nM.
On the same counts, the results for `CCn1cc(C(=O)Nc2ccc(Cc3cccc(Cl)c3)nn2)ccc1=O` [Compound 184, N-(6-(3-chlorobenzyl)pyridazin-3-yl)-1-ethyl-6-oxo-1,6-dihydropyridine-3-carboxamide] are > 45000 nM and 28900 nM.
With `CC(C)(O)c1ccc(C(=O)Nc2ccc(Cc3cccc(Cl)c3)cn2)cn1` [Compound 374], the IC50 on human SCD1 is 38500 nM; on human SCD5 (setting [1]) it was 7040 nM.
As to `CC(C)n1cc(C(=O)Nc2ccc(Cc3cccc(Cl)c3)cn2)ccc1=O` [Compound 83, N-(5-(3-chlorobenzyl)pyridin-2-yl)-1-isopropyl-6-oxo-1,6-dihydropyridine-3-carboxamide], the IC50 at human SCD1 is > 45000 nM; against human SCD5 (SCD5 IC50), 420 nM.
Turning to `Cn1nc(C(=O)Nc2nc(C(N)=O)c(Cc3cccc(F)c3)s2)ccc1=O` [Compound 430], the IC50 on human SCD1 and at human SCD5 (setting [1]) was > 45000 nM in each case.
As to `Cn1nc(C(=O)Nc2ccc(Cc3cccc(F)c3)cn2)ccc1=O` [Example 45, N-(5-(3-fluorobenzyl)pyridin-2-yl)-1-methyl-6-oxo-1,6-dihydropyridazine-3-carboxamide], the IC50 at human SCD1 worked out at 15400 nM; on human SCD5 (setting [1]), 430 nM.
On the same counts, the results for `CN1N=C(C(=O)Nc2ccc(COc3cccc(Cl)c3)nn2)CCC1=O` [Compound 181, N-(6-((3-chlorophenoxy)methyl)pyridazin-3-yl)-1-methyl-6-oxo-1,4,5,6-tetrahydropyridazine-3-carboxamide] are > 45000 nM and 1220 nM.
For the molecule `O=C(Nc1ccc(Cc2cccc(F)c2)cn1)c1ccn2cnnc2c1` [Compound 344], the IC50 was > 45000 nM on human SCD1 and 26300 nM at human SCD5 (setting [1]).
On the same counts, the results for `N#Cc1ccc(C(=O)Nc2ccc(CC3CCCCC3)cn2)cn1` [Compound 327] are > 45000 nM and 1320 nM.
For `COC(=O)c1ccc(C(=O)Nc2ccc(COc3ccc(F)c(Cl)c3)cn2)nc1` [Compound 428], in that order: > 45000 nM and > 45000 nM.
On the same counts, the results for `CN1N=C(C(=O)Nc2ccc(Cc3cccc(C(F)(F)F)c3)cn2)CCC1=O` [Example 18, 1-methyl-6-oxo-N-(5-(3-(trifluoromethyl)benzyl)pyridin-2-yl)-1,4,5,6-tetrahydropyridazine-3-carboxamide] are 8570 nM and 1600 nM.
For `O=C(Nc1ccc(Cc2cc(F)cc(F)c2)cn1)c1cncc(CO)c1` [Compound 580], the IC50 amounted to 19 nM on human SCD1 and 10 nM on human SCD5 (setting [1]).
For the molecule `Cn1ccc(NC(=O)c2ccc(Cc3cccc(F)c3)cn2)n1` [Compound 95, 5-(3-fluorobenzyl)-N-(1-methyl-1H-pyrazol-3-yl)picolinamide], the IC50 on human SCD1 is > 45000 nM; on human SCD5 (setting [1]) it was 10 nM.
For the molecule `O=C(O)c1cnc(C(=O)Nc2ccc(Cc3ccc(F)c(F)c3)cn2)cn1` [Compound 554], the IC50 was 3200 nM on human SCD1 and 8800 nM at human SCD5 (setting [1]).
On the same counts, the results for `Cc1cc(C(=O)Nc2ccc(Cc3cc(F)cc(C#N)c3)cn2)nc(C)n1` [Compound 606] are 610 nM and 170 nM.
On the same counts, the results for `N#Cc1cc(F)cc(Cc2ccc(NC(=O)c3cncc(CO)c3)nc2)c1` [Compound 628] are 190 nM and 30 nM.
For the molecule `N#Cc1nc(C(=O)Nc2ccc(Cc3cccc(F)c3)cn2)cs1` [Compound 640], the figures for the IC50 at human SCD1 and on human SCD5 (setting [1]) were 3200 nM and 1300 nM, respectively.
`Cc1cnc(C(=O)Nc2ccc(Cc3ccc(F)c(Cl)c3)cn2)cn1` [Compound 138, N-(5-(3-chloro-4-fluorobenzyl)pyridin-2-yl)-5-methylpyrazine-2-carboxamide]: the 50% inhibitory concentration (IC50) came out at 550 nM on human SCD1 and 80 nM on human SCD5 (setting [1]).
For `Cn1nccc(C(=O)Nc2ccc(Cc3cc(F)cc(F)c3)cn2)c1=O` [Compound 532], in that order: 10 nM and 10 nM.
For `N#Cc1ccc(C(=O)Nc2ccc(Cc3cccc(Cl)c3)cn2)nc1` [Compound 129, N-(5-(3-chlorobenzyl)pyridin-2-yl)-5-cyanopicolinamide], in that order: > 45000 nM and 50 nM.
With `O=C(Nc1ccc(Cc2cc(F)cc(F)c2)cn1)c1ccnnc1` [Compound 622], the figures for the IC50 on human SCD1 and at human SCD5 (setting [1]) were 23 nM and 16 nM, respectively.
With `Cc1cnc(C(=O)Nc2ccc(Cc3cccc(F)c3)cn2)nc1` [Compound 139, N-(5-(3-fluorobenzyl)pyridin-2-yl)-5-methylpyrimidine-2-carboxamide], the IC50 at human SCD1 was 4930 nM; at human SCD5 (setting [1]), 60 nM.
In the case of `O=C(Nc1ncc(Cc2cccc(F)c2)s1)C1=NN(CCF)C(=O)CC1` [Compound 386], the IC50 at human SCD1 and at human SCD5 (setting [1]) was > 45000 nM throughout.
`CN1N=C(C(=O)Nc2ccc(Cc3cccc(F)c3)cn2)CCC1=O` [Compound 6, N-(5-(3-fluorobenzyl)pyridin-2-yl)-1-methyl-6-oxo-1,4,5,6-tetrahydropyridazine-3-carboxamide]: the figures for the IC50 at human SCD1 and on human SCD5 (setting [1]) were > 45000 nM and 1020 nM, respectively.
Take `O=C(Nc1ccc(Cc2cccc(Cl)c2)cn1)c1ccc(C(F)F)nc1` [Compound 295]: the half-maximal inhibitory concentration (IC50) on human SCD1 was found to be 22500 nM; on human SCD5 (setting [1]) it was 340 nM.
On the same counts, the results for `Cn1nc(NC(=O)c2ccc(Cc3ccc(F)c(F)c3)cn2)ccc1=O` [Compound 312] are 1820 nM and 30 nM.
Take `O=C(Nc1ccc(Cc2cc(F)cc(F)c2)cn1)c1cnc(Cl)cn1` [Compound 635]: the IC50 on human SCD1 was > 45000 nM; at human SCD5 (setting [1]), 62 nM.
Regarding `Cc1ccc(C(=O)Nc2ccc(Cc3cccc(F)c3)cn2)nn1` [Compound 145, N-(5-(3-fluorobenzyl)pyridin-2-yl)-6-methylpyridazine-3-carboxamide], the values for the IC50 at human SCD1 and on human SCD5 (setting [1]) were 1710 nM and 100 nM, respectively.
On the same counts, the results for `Cc1cnc(Cc2ccc(NC(=O)C3=NN(C)C(=O)CC3)nc2)s1` [Compound 402] are > 45000 nM and > 45000 nM.
As for `Cn1cc(C(=O)Nc2ccc(Cc3cccc(F)c3)nn2)ccc1=O` [Compound 176, N-(6-(3-fluorobenzyl)pyridazin-3-yl)-1-methyl-6-oxo-1,6-dihydropyridine-3-carboxamide], the IC50 at human SCD1 is > 45000 nM; on human SCD5 (setting [1]), 2660 nM.
For `O=C(Nc1ccc2nncn2c1)c1ccc(Cc2cccc(Cl)c2)cn1` [Compound 150, N-([1,2,4]triazolo[4,3-a]pyridin-6-yl)-5-(3-chlorobenzyl)picolinamide trifluoroacetic Acid], the concentration for half-maximal inhibition (IC50) on human SCD1 is 20 nM; on human SCD5 (setting [1]), 10 nM.
